Measurements: paper PMC8138579, “Screening of Anti-Lipase Components of Artemisia argyi Leaves Based on Spectrum-Effect Relationships and HPLC-MS/MS” (Frontiers in Pharmacology, 2021)

Each compound was assayed against T1, Porcine pancreatic lipase (type II) (Sus scrofa, UniProt P00591) (assay: fluorometric lipase assay, 4-methylumbelliferone release).
T1 construct: gene PNLIP; native commercial porcine pancreas preparation (Sigma-Aldrich, type II), no added colipase stated; human 1LPA used only for docking
T1 sequence (P00591 1-450): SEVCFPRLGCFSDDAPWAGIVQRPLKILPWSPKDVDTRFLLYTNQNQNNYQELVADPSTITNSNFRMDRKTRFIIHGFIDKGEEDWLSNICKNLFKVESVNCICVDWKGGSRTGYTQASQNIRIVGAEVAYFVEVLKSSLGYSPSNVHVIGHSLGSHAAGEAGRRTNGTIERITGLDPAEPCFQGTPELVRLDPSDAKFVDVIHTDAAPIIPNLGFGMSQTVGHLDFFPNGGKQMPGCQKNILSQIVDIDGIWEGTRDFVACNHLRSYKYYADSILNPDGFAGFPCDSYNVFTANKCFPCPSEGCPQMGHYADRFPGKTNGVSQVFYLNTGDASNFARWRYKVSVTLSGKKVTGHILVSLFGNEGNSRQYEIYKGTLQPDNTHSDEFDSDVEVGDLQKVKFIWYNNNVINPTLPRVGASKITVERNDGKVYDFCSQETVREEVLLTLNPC
Format: biochemical
From the text: fluorometric lipase assay, 4-methylumbelliferone release on Porcine pancreatic lipase (type II) | IC50 values of neochlorogenic acid, chlorogenic acid, isochlorogenic acid B and isochlorogenic acid A

Row | IC50 | Compound
1 | 429 µM | O=C(/C=C/c1ccc(O)c(O)c1)O[C@@H]1C[C@@](O)(C(=O)O)C[C@@H](O)[C@@H]1O [P1, neochlorogenic acid]
2 | 234 µM | O=C(/C=C/c1ccc(O)c(O)c1)O[C@H]1[C@H](O)C[C@](O)(C(=O)O)C[C@H]1OC(=O)/C=C/c1ccc(O)c(O)c1 [P7, isochlorogenic acid B]
3 | 157 µM | O=C(/C=C/c1ccc(O)c(O)c1)O[C@@H]1C[C@](O)(C(=O)O)C[C@@H](OC(=O)/C=C/c2ccc(O)c(O)c2)[C@H]1O [P8, isochlorogenic acid A]
4 | 322 µM | O=C(/C=C/c1ccc(O)c(O)c1)O[C@@H]1C[C@](O)(C(=O)O)C[C@@H](O)[C@H]1O [P3, chlorogenic acid]
